# Patent publication US4954482A, “New glycopeptide antibiotic” (Pfizer Inc., priority 1986, dated 1990)
# System: rumen fluid
# Assay: In vitro rumen technique: propionic acid production
# Assay type: cell-based, cow
# Conditions: 10 micrograms per milliliter; rumen fluid incubated at 39° C. about 16 hours
# Description: The value of animal feeds has generally been determined directly by feeding the animal. British Patent Specification No. 1,197,826 details an in vitro rumen technique whereby the changes occurring in feeds brought about by microorganisms are measured more readily and with great accuracy in the evaluation of animal feeds. This technique involves the use of an apparatus in which the digestive processes of the animals are conducted and studied in vitro. The animal feeds, rumen inoculum and various growth promotants are introduced into and withdrawn from a laboratory unit under carefully controlled conditions and the changes taken place are studied critically and progressively during the consumption of the feed by the microorganisms. […] The change in propionic acid content is expressed as percent of the propionic acid content found in the control rumen fluid. Long term in vivo feeding studies are used to show a reliable correlation between propionic acid increase in the rumen fluid and improved animal performance. […]
# After incubation, 5 ml. of the sample is mixed with 1 ml. of 25% metaphosphoric acid. […] Samples are then analyzed by gas-liquid chromatography by the mthod of D. W. Kellog, J. Dairy Science, 52, 1690, 1969. Peak heights for acetic, propionic and butyric acids are determined for samples from untreated and treated incubation flasks.
compound,measurement,value
CC[C@@H](C(=O)[C@@H](C)[C@@H](O)[C@H](C)[C@@H]1O[C@@H]([C@@H](CC)C(=O)O)CC[C@@H]1C)[C@H]1O[C@]2(C=C[C@@H](O)[C@]3(CC[C@@](C)([C@H]4CC[C@](O)(CC)[C@H](C)O4)O3)O2)[C@H](C)C[C@@H]1C [salinomycin],increase in the production of propionic acid over control,~46%
